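Five concentrations, 48 hours, 96-well plates. GI50 = concentration required for 50% inhibition of growth.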 Active and inactive are the calls of the source. No stated cut-off is given here; in the data, active = GI50 up to about 1.1 µM and inactive = higher. Peptide text beside a SMILES is read from it. * marks the point of attachment. Cbz = O=C(OCc1ccccc1)*; Boc = CC(C)(C)OC(=O)*; OBn = c1ccc(CO*)cc1
Experiments:
Assay in all cases: growth of human tumour cells (NCI), 48 h
HL-60 = tested on: HL-60
MOLT-4 = tested on: MOLT-4
SNB-75 = tested on: SNB-75
Hs-578T = tested on: Hs-578T
NCI/ADR-RES = tested on: NCI/ADR-RES
COLO 205 = tested on: COLO 205
UO-31 = tested on: UO-31
MCF7 = tested on: MCF7
SK-MEL-5 = tested on: SK-MEL-5
SK-MEL-28 = tested on: SK-MEL-28
M14 = tested on: M14
SF-268 = tested on: SF-268
SK-OV-3 = tested on: SK-OV-3
UACC-62 = tested on: UACC-62
ACHN = tested on: ACHN
OVCAR-8 = tested on: OVCAR-8
SR = tested on: SR
T47D = tested on: T47D
CAKI-1 = tested on: CAKI-1
NCI-H23 = tested on: NCI-H23
LOX IMVI = tested on: LOX IMVI
TK-10 = tested on: TK-10
BT-549 = tested on: BT-549
SF-539 = tested on: SF-539
IGROV-1 = tested on: IGROV-1
786-0 = tested on: 786-0
NCI-H226 = tested on: NCI-H226
MDA-MB-231 = tested on: MDA-MB-231
HT-29 = tested on: HT-29
SN12C = tested on: SN12C
MDA-MB-435 = tested on: MDA-MB-435
NCI-H522 = tested on: NCI-H522
KM12 = tested on: KM12
A498 = tested on: A498
PC-3 = tested on: PC-3
HCT-116 = tested on: HCT-116
MDA-N = tested on: MDA-N
RPMI-8226 = tested on: RPMI-8226
SF-295 = tested on: SF-295
RXF 393 = tested on: RXF 393
U-251 = tested on: U-251
HCT-15 = tested on: HCT-15
SW-620 = tested on: SW-620
A549 = tested on: A549
OVCAR-4 = tested on: OVCAR-4
DU-145 = tested on: DU-145
OVCAR-5 = tested on: OVCAR-5
OVCAR-3 = tested on: OVCAR-3
NCI-H460 = tested on: NCI-H460
EKVX = tested on: EKVX
Malme-3M = tested on: Malme-3M
K562 = tested on: K562
HOP-92 = tested on: HOP-92
SNB-19 = tested on: SNB-19
HOP-62 = tested on: HOP-62
KM-20L2 = tested on: KM-20L2
UACC-257 = tested on: UACC-257
M19-MEL = tested on: M19-MEL
CCRF-CEM = tested on: CCRF-CEM
SK-MEL-2 = tested on: SK-MEL-2
LXFL 529 = tested on: LXFL 529
HCC 2998 = tested on: HCC 2998
DLD-1 = tested on: DLD-1
SNB-78 = tested on: SNB-78

Measured: GI50

COC(=O)C(CCCCNC(=O)OCc1ccccc1)NC(=O)C(CCC(=O)OCc1ccccc1)NC(=O)OC(C)(C)C (stereo not given) (Boc-Glu(OBn)-Lys(Cbz)-OMe; configuration not given here)
inactive: HL-60 > 100 µM | MOLT-4 > 100 µM | SNB-75 > 100 µM | Hs-578T 27.7 µM | NCI/ADR-RES > 100 µM | COLO 205 > 100 µM | UO-31 > 100 µM | MCF7 > 100 µM | SK-MEL-5 > 100 µM | SK-MEL-28 64 µM | M14 > 100 µM | SF-268 > 100 µM | SK-OV-3 46.6 µM | UACC-62 43 µM | ACHN > 100 µM | OVCAR-8 > 100 µM | SR > 100 µM | T47D > 100 µM | CAKI-1 86.7 µM | NCI-H23 > 100 µM | LOX IMVI > 100 µM | TK-10 > 100 µM | BT-549 > 100 µM | SF-539 > 100 µM | IGROV-1 > 100 µM | 786-0 > 100 µM | NCI-H226 > 100 µM | MDA-MB-231 73.6 µM | HT-29 > 100 µM | SN12C > 100 µM | MDA-MB-435 > 100 µM | NCI-H522 56.9 µM | KM12 > 100 µM | A498 16.1 µM | PC-3 > 100 µM | HCT-116 > 100 µM | MDA-N > 100 µM | RPMI-8226 > 100 µM | SF-295 64.4 µM | RXF 393 > 100 µM | U-251 > 100 µM | SW-620 > 100 µM | A549 > 100 µM | OVCAR-4 57.3 µM | DU-145 > 100 µM | OVCAR-5 > 100 µM | OVCAR-3 73.1 µM | NCI-H460 > 10 µM | EKVX > 100 µM | Malme-3M 54.3 µM | K562 > 100 µM | HOP-92 > 100 µM | SNB-19 40.2 µM | HOP-62 15 µM
> 100 µM: HCT-15

Cc1ccc(S(=O)(=O)NNC(=O)c2sc(-c3nc(C)c(C(=O)NNS(=O)(=O)c4ccc(C)cc4)s3)nc2C)cc1
47.1 µM: HCT-15
inactive: HL-60 48.5 µM | MOLT-4 42.4 µM | SNB-75 58.3 µM | COLO 205 > 100 µM | UO-31 28.8 µM | SK-MEL-5 71.1 µM | SK-MEL-28 > 100 µM | M14 > 100 µM | SF-268 > 100 µM | SK-OV-3 > 100 µM | UACC-62 72.3 µM | ACHN 97.9 µM | OVCAR-8 > 100 µM | CAKI-1 24 µM | NCI-H23 > 100 µM | LOX IMVI > 100 µM | TK-10 > 100 µM | SF-539 > 100 µM | IGROV-1 > 100 µM | 786-0 69.7 µM | NCI-H226 50.7 µM | KM-20L2 > 100 µM | UACC-257 > 100 µM | HT-29 57.3 µM | SN12C > 100 µM | KM12 > 100 µM | A498 > 100 µM | HCT-116 84.5 µM | RPMI-8226 45.3 µM | SF-295 > 100 µM | RXF 393 > 100 µM | U-251 > 100 µM | M19-MEL > 100 µM | SW-620 > 100 µM | CCRF-CEM 45.6 µM | A549 > 100 µM | SK-MEL-2 > 100 µM | OVCAR-5 > 100 µM | LXFL 529 62.8 µM | HCC 2998 > 100 µM | OVCAR-3 > 100 µM | NCI-H460 > 100 µM | EKVX > 100 µM | DLD-1 73.8 µM | Malme-3M > 100 µM | SNB-78 > 100 µM | K562 45.9 µM | HOP-92 31 µM | SNB-19 > 100 µM | HOP-62 > 100 µM

CC(Oc1ccccc1)C(=O)NN (stereo not given)
inactive: HL-60 > 100 µM | MOLT-4 > 100 µM | SNB-75 > 100 µM | Hs-578T 34.8 µM | NCI/ADR-RES > 100 µM | COLO 205 > 100 µM | UO-31 > 100 µM | MCF7 > 100 µM | SK-MEL-5 > 100 µM | SK-MEL-28 > 100 µM | M14 > 100 µM | SF-268 > 100 µM | SK-OV-3 > 100 µM | UACC-62 > 100 µM | ACHN > 100 µM | OVCAR-8 > 100 µM | SR > 100 µM | T47D > 100 µM | CAKI-1 > 100 µM | NCI-H23 > 100 µM | LOX IMVI > 100 µM | TK-10 > 100 µM | BT-549 > 100 µM | SF-539 > 100 µM | IGROV-1 > 100 µM | 786-0 > 100 µM | NCI-H226 > 100 µM | MDA-MB-231 66.8 µM | UACC-257 > 100 µM | HT-29 > 100 µM | SN12C > 100 µM | MDA-MB-435 > 100 µM | NCI-H522 79.3 µM | KM12 > 100 µM | A498 > 100 µM | PC-3 > 100 µM | HCT-116 > 100 µM | MDA-N > 100 µM | RPMI-8226 > 100 µM | SF-295 > 100 µM | RXF 393 > 100 µM | U-251 > 100 µM | SW-620 > 100 µM | CCRF-CEM > 100 µM | A549 > 100 µM | SK-MEL-2 > 100 µM | OVCAR-4 > 100 µM | DU-145 > 100 µM | OVCAR-5 > 100 µM | HCC 2998 > 100 µM | OVCAR-3 > 100 µM | NCI-H460 > 100 µM | EKVX > 100 µM | Malme-3M > 100 µM | K562 > 100 µM | HOP-92 > 100 µM | SNB-19 > 100 µM | HOP-62 > 100 µM
> 100 µM: HCT-15

CC(C)=CCNc1ncnc2c1c(C#N)cn2C1OC(CO)C(O)C1O (stereo not given)
active: COLO 205 0.716 µM | MCF7 < 0.019 µM | T47D 0.0386 µM | IGROV-1 0.431 µM | OVCAR-4 1.1 µM
inactive: HL-60 9.12 µM | MOLT-4 65.2 µM | SNB-75 75.7 µM | Hs-578T 56.9 µM | NCI/ADR-RES > 82 µM | UO-31 32.8 µM | SK-MEL-5 21.7 µM | SK-MEL-28 > 100 µM | M14 > 58.3 µM | SF-268 > 100 µM | SK-OV-3 16.9 µM | UACC-62 39.7 µM | ACHN 9.82 µM | OVCAR-8 50.7 µM | SR 5.45 µM | CAKI-1 73.8 µM | NCI-H23 > 56.5 µM | LOX IMVI > 79.8 µM | TK-10 1.21 µM | BT-549 > 100 µM | SF-539 > 72.1 µM | 786-0 > 100 µM | NCI-H226 39.2 µM | MDA-MB-231 33.7 µM | UACC-257 > 100 µM | HT-29 12.3 µM | SN12C 12.7 µM | MDA-MB-435 31.1 µM | NCI-H522 7.64 µM | KM12 1.36 µM | A498 24 µM | PC-3 32.5 µM | HCT-116 4.61 µM | MDA-N 42.1 µM | RPMI-8226 3.56 µM | SF-295 > 100 µM | RXF 393 71.1 µM | U-251 > 67.5 µM | SW-620 10 µM | CCRF-CEM 3.85 µM | A549 8.32 µM | SK-MEL-2 39.7 µM | DU-145 10.9 µM | OVCAR-5 > 66.2 µM | OVCAR-3 3.66 µM | NCI-H460 4.02 µM | EKVX 10.4 µM | Malme-3M > 77.6 µM | K562 3.86 µM | HOP-92 24.3 µM | SNB-19 > 53.8 µM | HOP-62 53.1 µM
0.603 µM: HCT-15

CO/N=C1\CC(NC(=O)CNC(=O)OC(C)(C)C)c2ccsc21 (stereo not given)
> 100 µM: HCT-15
inactive: HL-60 > 100 µM | MOLT-4 > 100 µM | SNB-75 53.1 µM | Hs-578T > 100 µM | NCI/ADR-RES > 100 µM | COLO 205 > 100 µM | UO-31 > 100 µM | MCF7 > 100 µM | SK-MEL-5 81.5 µM | SK-MEL-28 > 100 µM | M14 > 100 µM | SF-268 > 100 µM | SK-OV-3 > 100 µM | UACC-62 > 100 µM | OVCAR-8 > 100 µM | SR > 100 µM | T47D > 100 µM | CAKI-1 > 100 µM | NCI-H23 > 100 µM | LOX IMVI > 100 µM | TK-10 > 100 µM | BT-549 > 100 µM | SF-539 > 100 µM | IGROV-1 > 100 µM | NCI-H226 > 100 µM | MDA-MB-231 > 100 µM | UACC-257 > 100 µM | HT-29 > 100 µM | SN12C > 100 µM | MDA-MB-435 90.6 µM | A498 > 100 µM | PC-3 > 100 µM | HCT-116 > 100 µM | MDA-N 49.2 µM | SF-295 > 100 µM | RXF 393 > 100 µM | U-251 > 100 µM | SW-620 > 100 µM | CCRF-CEM > 100 µM | A549 > 100 µM | SK-MEL-2 > 100 µM | OVCAR-4 > 100 µM | DU-145 > 100 µM | OVCAR-5 > 100 µM | HCC 2998 > 100 µM | OVCAR-3 > 100 µM | NCI-H460 > 100 µM | EKVX > 100 µM | Malme-3M > 100 µM | HOP-92 > 100 µM | HOP-62 > 100 µM

Source: ChEMBL document CHEMBL1201862, “PubChem BioAssay data set” (2004)
